Results taken from patent US20120302503A1, “PEPTIDES FOR PREVENTING OR TREATING A DISEASE OR DISORDER ASSOCIATED WITH CBP OR p300 MISREGULATION, AND METHODS FOR USE AND IDENTIFICATION THEREOF” (AML Therapeutics, LLC, priority 2011, published 2012).
pIC50: −log10 of the molar value. Read-outs that look alike come from different tables or passages of the source. Square brackets hold non-standard residues; d marks the D form. Peptide text beside a SMILES is read from it. d(pS) = N[C@H](COP(=O)(O)O)C(=O)O; pS = N[C@@H](COP(=O)(O)O)C(=O)O; dNle = CCCC[C@@H](N)C(=O)O

Tested on: THP-1 cell line
Experiment: Cell proliferation assay (Promega Cell Titer-Glo) using cell line THP-1
Format: cell-based
Experimental: To determine the in vitro IC50 of two peptides, and a positive control, cisplatin, against the THP-1 cell line, cell growth is determined using Promega's Cell Titer-Glo® assay. THP-1 tumor cells are placed in a 96-well microculture plate (Costar white, flat bottom #3917) at 20,000 cells per well, in a total volume of 90 μL/well. After 24 hours of incubation in a humidified incubator at 37 C with 5% CO2 and 95% air, 10 μL of 10×, serially diluted test agents in growth medium are added to each well. […] 100 μL of Cell Titer-Glo® reagent are added to each well. The plate is shaken for 2 minutes and then left to equilibrate for 10 minutes before determining luminescence on a Tecan GENios microplate reader. Percent inhibition of cell growth is calculated relative to untreated control wells. All tests are performed in duplicate at each concentration level. The IC50 value for the test agents is estimated using Prism 3.03 by curve-fitting the data using the following four parameter-logistic equation: where Top is the maximal % of control absorbance, Bottom is the minimal % of control absorbance at the highest agent concentration, Y is the % of control absorbance, X is the agent concentration, IC50 is the concentration of agent that inhibits cell growth by 50% compared to the control cells, and n is the slope of the curve.

SMILES | pIC50 (24 h) | pIC50 (THP-1 tumor cells, 96 total hours of culture, Cell Titer-Glo luminescence, Table 1, read-out: IC50 values) | pIC50 (THP-1 tumor cells, 96 total hours of culture, Cell Titer-Glo luminescence, Table 2, read-out: IC50 values)
CC[C@@H](C)[C@@H](NC(=O)[C@@H](CC(C)C)NC(=O)[C@@H](CC(N)=O)NC(=O)[C@@H](CC(=O)O)NC(=O)[C@@H](CC(C)C)NC(=O)[C@@H](CCSC)NC(=O)[C@@H](CO)NC(=O)[C@H](NC(=O)[C@@H](CCC(=O)O)NC(=O)[C@@H](CC(N)=O)NC(=O)[C@@H](CCC(=O)O)NC(=O)[C@@H](CC(C)C)NC(=O)CNC(=O)[C@@H](CCCNC(=N)N)NC(=O)[C@@H](CCCNC(=N)N)NC(=O)[C@@H](CCCNC(=N)N)NC(=O)[C@@H](CCCNC(=N)N)NC(=O)[C@@H](CCCNC(=N)N)NC(=O)[C@@H](CCCNC(=N)N)NC(=O)[C@@H](CCCNC(=N)N)NC(=O)[C@@H](CCCNC(=N)N)NC(=O)[C@H](N)CCCNC(=N)N)[C@H](C)O)C(=O)N[C@H](CCCCN)C(=O)N[C@H](CCCNC(=N)N)C(=O)N[C@H](Cc1ccc(O)cc1)C(=O)N[C@H](COP(=O)(O)O)C(=O)NCC(N)=O [SEQ ID NO: 13, dR dR dR dR dR dR dR dR dR G dL dE dN dE dT dS dM dL dD dN dL dI dK dR dY dpS G amide] (H-[dR][dR][dR][dR][dR][dR][dR][dR][dR]G[dL][dE][dN][dE][dT][dS][dM][dL][dD][dN][dL][dI][dK][dR][dY][d(pS)]G-NH2; N-terminus assumed) | 4.76 | – | –
N.N.[Cl][Pt][Cl] [Cisplatin, cisplatin, reference compound] | – | 5.80 | 5.80
CC[C@@H](C)[C@@H](NC(=O)[C@@H](CCCCN)NC(=O)[C@@H](CCC(=O)O)NC(=O)[C@@H](CC(C)C)NC(=O)[C@@H](CCC(=O)O)NC(=O)[C@@H](CC(C)C)NC(=O)[C@@H](CC(C)C)NC(=O)[C@@H](CC(C)C)NC(=O)[C@@H](CCSC)NC(=O)[C@@H](CO)NC(=O)[C@H](NC(=O)[C@@H](CCC(=O)O)NC(=O)[C@@H](CC(N)=O)NC(=O)[C@@H](CCC(=O)O)NC(=O)[C@@H](CC(C)C)NC(=O)CNC(=O)[C@@H](Cc1ccc(O)cc1)NC(=O)CNC(=O)[C@@H](CCCNC(=N)N)NC(=O)[C@@H](CCCCN)NC(=O)[C@@H](CCCCN)NC(=O)[C@@H](CCCNC(=N)N)NC(=O)[C@@H](CCCNC(=N)N)NC(=O)[C@@H](CCC(N)=O)NC(=O)[C@@H](CCCNC(=N)N)NC(=O)[C@@H](CCCNC(=N)N)NC(=O)[C@H](N)CCCNC(=N)N)[C@H](C)O)C(=O)N[C@H](CCCNC(=N)N)C(N)=O [SEQ ID NO: 16, dR dR dR dQ dR dR dK dK dR G dY G dL dE dN dE dT dS dM dL dL dL dE dL dE dK dI dR amide] (H-[dR][dR][dR][dQ][dR][dR][dK][dK][dR]G[dY]G[dL][dE][dN][dE][dT][dS][dM][dL][dL][dL][dE][dL][dE][dK][dI][dR]-NH2; N-terminus assumed) | 4.67 | – | –
CC[C@@H](C)[C@@H](NC(=O)[C@@H](CC(C)C)NC(=O)[C@@H](CC(N)=O)NC(=O)[C@@H](CC(=O)O)NC(=O)[C@@H](CC(C)C)NC(=O)[C@@H](CCSC)NC(=O)[C@@H](CO)NC(=O)[C@H](NC(=O)[C@@H](CCC(=O)O)NC(=O)[C@@H](CC(N)=O)NC(=O)[C@@H](CCC(=O)O)NC(=O)[C@@H](CC(C)C)NC(=O)CNC(=O)[C@@H](CCCNC(=N)N)NC(=O)[C@@H](CCCNC(=N)N)NC(=O)[C@@H](CCCNC(=N)N)NC(=O)[C@@H](CCCNC(=N)N)NC(=O)[C@@H](CCCNC(=N)N)NC(=O)[C@@H](CCCNC(=N)N)NC(=O)[C@@H](CCCNC(=N)N)NC(=O)[C@@H](CCCNC(=N)N)NC(=O)[C@H](N)CCCNC(=N)N)[C@H](C)O)C(=O)N[C@H](CCCCN)C(=O)N[C@H](CCCNC(=N)N)C(=O)N[C@H](Cc1ccc(O)cc1)C(=O)N[C@@H](COP(=O)(O)O)C(=O)NCC(N)=O [SEQ ID NO: 14, dR dR dR dR dR dR dR dR dR G dL dE dN dE dT dS dM dL dD dN dL dI dK dR dY pS G amide] (H-[dR][dR][dR][dR][dR][dR][dR][dR][dR]G[dL][dE][dN][dE][dT][dS][dM][dL][dD][dN][dL][dI][dK][dR][dY][pS]G-NH2; N-terminus assumed) | 4.86 | – | –
CCCC[C@@H](NC(=O)[C@@H](CCSC)NC(=O)[C@@H](CO)NC(=O)[C@H](NC(=O)[C@@H](CCC(=O)O)NC(=O)[C@@H](CC(N)=O)NC(=O)[C@@H](CCC(=O)O)NC(=O)[C@@H](CC(C)C)NC(=O)CNC(=O)[C@@H](CCCNC(=N)N)NC(=O)[C@@H](CCCNC(=N)N)NC(=O)[C@@H](CCCNC(=N)N)NC(=O)[C@@H](CCCNC(=N)N)NC(=O)[C@@H](CCCNC(=N)N)NC(=O)[C@@H](CCCNC(=N)N)NC(=O)[C@@H](CCCNC(=N)N)NC(=O)[C@@H](CCCNC(=N)N)NC(=O)[C@H](N)CCCNC(=N)N)[C@H](C)O)C(=O)N[C@H](CC(=O)O)C(=O)N[C@H](CC(N)=O)C(=O)N[C@H](CC(C)C)C(=O)N[C@@H](C(=O)N[C@H](CCCCN)C(=O)N[C@H](CCCNC(=N)N)C(=O)N[C@H](Cc1ccc(O)cc1)C(=O)N[C@@H](COP(=O)(O)O)C(=O)NCC(N)=O)[C@H](C)CC [SEQ ID NO: 15, dR dR dR dR dR dR dR dR dR G dL dE dN dE dT dS dM dNIe dD dN dL dI dK dR dY pS G amide] (H-[dR][dR][dR][dR][dR][dR][dR][dR][dR]G[dL][dE][dN][dE][dT][dS][dM][dNle][dD][dN][dL][dI][dK][dR][dY][pS]G-NH2; N-terminus assumed) | 4.85 | – | –
